The subject of data set [1] is adult houseflies (Musca domestica). Put plainly: Musca domestica test. The note with it: application rate 100 ppm, after 2 days. Type of data set: in vivo. As for the experimental part:
(§1) Solvent: dimethyl sulphoxide
(§2) To produce a suitable active compound preparation, 10 mg of active compound are mixed with 0.5 ml of dimethyl sulphoxide, and the concentrate is diluted with water to the desired concentration.
Vessels containing a sponge treated with sugar solution and the active compound preparation of the desired concentration are populated with 10 adult houseflies (Musca domestica).
After 2 days, the kill in % is determined. 100% means that all of the flies have been killed; 0% means that none of the flies have been killed.

In data set [2] the test system is caterpillars of the armyworm (Spodoptera frugiperda). The data set can be described thus: Spodoptera frugiperda - spray test. Type of data set: in vivo. The note with it: application rate 500 g/ha, maize leaf discs, after 7 days. As for the experimental part: (§3) Solvent: 78.0 parts by weight of acetone • • 1.5 parts by weight of dimethylformamide
(§4) Emulsifier: alkylaryl polyglycol ether
(§5) To produce a suitable active compound preparation, 1 part by weight of active compound is dissolved with the stated parts by weight of solvent and made up with water containing an emulsifier concentration of 1000 ppm until the desired concentration is attained. To produce further test concentrations, the preparation is diluted with emulsifier-containing water.
Leaf discs of maize (Zea mays) are sprayed with an active compound preparation of the desired concentration and, after drying, populated with caterpillars of the armyworm (Spodoptera frugiperda).
After 7 days, the efficacy in % is determined. 100% means that all the caterpillars have been killed; 0% means that no caterpillar has been killed.

A short description of data set [3]: log P (neutral) by HPLC on reversed-phase column (C 18), EEC Directive 79/831 Annex V.A8. It is filed as physicochemical. The note with it: HPLC reversed-phase C 18, 55° C., neutral range pH 7.8, ammonium hydrogencarbonate/acetonitrile; for chromatographic logP: reversed-phase HPLC column (C 18).
Data set [4] relates to larvae of the mustard beetle (Phaedon cochleariae). Put plainly: Phaedon cochleariae - spray test. Type of data set: in vivo. The note with it: application rate 500 g/ha, Chinese cabbage leaf discs, after 7 days. Here is the method:
as §3, §4, §5
After 7 days, the efficacy in % is determined. 100% means that all the beetle larvae have been killed; 0% means that no beetle larvae have been killed.

The subject of data set [5] is L1 larvae of the Australian sheep blowfly (Lucilia cuprina). Put plainly: Lucilia cuprina test. The note with it: application rate 100 ppm, after 2 days. It is filed as in vivo. Here is the method: as §1, §2
About 20 L1 larvae of the Australian sheep blowfly (Lucilia cuprina) are transferred into a test vessel containing minced horsemeat and the active compound preparation of the desired concentration.
After 2 days, the kill in % is determined. 100% means that all the larvae have been killed; 0% means that no larvae have been killed.

For data set [6], the system named is engorged adult female cattle ticks (Boophilus microplus). Put plainly: Boophilus microplus - injection test. Type of data set: in vivo. The note with it: application rate 20 μg/animal, assessed after 7 days. Here is the method:
as §1
To produce a suitable active compound preparation, 10 mg of active compound are mixed with 0.5 ml of solvent and the concentrate is diluted with solvent to the desired concentration.
1 μl of the active compound solution is injected into the abdomen of 5 engorged adult female cattle ticks (Boophilus microplus). The animals are transferred into dishes and kept in a climate-controlled room.
Efficacy is assessed after 7 days by laying of fertile eggs. Eggs which are not visibly fertile are stored in a climate-controlled cabinet until the larvae hatch after about 42 days. An efficacy of 100% means that none of the ticks has laid any fertile eggs; 0% means that all the eggs are fertile.

In data set [7] the test system is unfed adult cat fleas (Ctenocephalides felis). The data set can be described thus: Ctenocephalides felis - oral test. Type of data set: in vivo. The note with it: application rate 100 ppm in citrated cattle blood, after 2 days. Here is the method: as §1
To produce a suitable active compound preparation, 10 mg of active compound are mixed with 0.5 ml of dimethyl sulphoxide. Dilution with citrated cattle blood gives the desired concentration.
About 20 unfed adult cat fleas (Ctenocephalides felis) are placed into a chamber which is closed at the top and bottom with gauze. A metal cylinder whose bottom end is closed with parafilm is placed onto the chamber. The cylinder contains the blood/active compound preparation, which can be imbibed by the fleas through the parafilm membrane.
After 2 days, the kill in % is determined. 100% means that all of the fleas have been killed; 0% means that none of the fleas have been killed.

In data set [8] the test system is green peach aphid (Myzus persicae). The data set can be described thus: Myzus persicae - spray test. The note with it: application rate 500 g/ha, Chinese cabbage leaf discs, after 5-6 days. Type of data set: in vivo. As for the experimental part: Solvent: 78 parts by weight of acetone • • 1.5 parts by weight of dimethylformamide
as §4, §5
Discs of Chinese cabbage leaves (Brassica pekinensis) infested by all stages of the green peach aphid (Myzus persicae) are sprayed with an active compound preparation of the desired concentration.
After 5-6 days, the efficacy in % is determined. 100% means that all the aphids have been killed; 0% means that no aphids have been killed.

Data set [9] has as its system southern root-knot nematode (Meloidogyne incognita). The data set can be described thus: Meloidogyne incognita test. It is filed as in vivo. The note with it: application rate 20 ppm, lettuce, after 14 days. As for the experimental part: Solvent: 125.0 parts by weight of acetone
To produce a suitable preparation of active compound, 1 part by weight of active compound is mixed with the stated amount of solvent and the concentrate is diluted with water to the desired concentration.
Vessels are filled with sand, active compound solution, an egg/larvae suspension of the southern root-knot nematode (Meloidogyne incognita) and lettuce seeds. The lettuce seeds germinate and the plants develop. The galls develop on the roots.
After 14 days, the nematicidal efficacy in % is determined by the formation of galls. 100% means that no galls were found; 0% means that the number of galls on the treated plants corresponds to the untreated control.

In the case of `CCS(=O)(=O)c1ccc(-n2cnn(-c3ccc(Cl)cc3Cl)c2=O)nc1-c1nc2cc(C(F)(F)F)ncc2n1C` [Example I-2, 2-(2,4-Dichlorophenyl)-4-[5-ethylsulfonyl-6-[3-methyl-6-(trifluoromethyl)imidazo[4,5-c]pyridin-2-yl]-2-pyridyl]-1,2,4-triazol-3-one], the “efficacy (kill in %)” value in data set [1] stood at 90%; in data set [5] it was 100%. Also, in [2], the “efficacy (caterpillars killed)” value came to 100%. The chromatographic logP in [3] was 3.71. In addition, in data set [4], the “efficacy (beetle larvae killed)” value is on record as 100%.

As to `CCS(=O)(=O)c1ccc(-n2ccn(-c3ccc(Br)cc3)c2=O)nc1-c1nc2cc(C(F)(F)F)ncc2n1C` [Example I-3], the entries for the “efficacy (kill in %)” value in data set [1], in data set [7] and in data set [5] were 90%, 100% and 100%, respectively. The “efficacy (no laying of fertile eggs)” value in data set [6] was 95%. The “efficacy (caterpillars killed)” value in data set [2] worked out at 100%. In addition, the “log P (neutral)” value in data set [3] is “Example I-3: logP (neutral): 3.87 ^1H-NMR(400.0 MHz, d6-DMSO): δ =”. In data set [4], the “efficacy (beetle larvae killed)” value is 100%. The “efficacy (aphids killed)” value in [8] is on record as 90%.

For the compound `CCS(=O)(=O)c1ccc(-n2ncn(-c3ccc(F)cc3)c2=O)nc1-c1nc2cc(C(F)(F)F)ncc2n1C` [Example I-8], the “efficacy (caterpillars killed)” value in [2] is listed as 100%. In addition, the “nematicidal efficacy (formation of galls)” value in data set [9] was determined as 90%. Also, the “log P (neutral)” value in [3] was “Example I-8: logP (neutral): 2.75 ^1H-NMR(400.0 MHz, d6-DMSO): δ =”. The “efficacy (beetle larvae killed)” value in [4] came to 100%. In data set [8], the “efficacy (aphids killed)” value is 100%.

In the case of `CCS(=O)(=O)c1ccc(-n2ncn(-c3ccc(Br)cc3)c2=O)nc1-c1nc2cc(C(F)(F)F)ncc2n1C` [Example I-16], the “efficacy (kill in %)” value in data set [1] stood at 80%; in [7], 100%; in data set [5] it was 100%. For the same compound, the “efficacy (caterpillars killed)” value in data set [2] was 100%. Also, the “efficacy (beetle larvae killed)” value in [4] is reported as 100%.

As for `CCS(=O)(=O)c1ccc(-n2ncn(-c3ccc(Cl)cc3)c2=O)nc1-c1nc2cc(C(F)(F)F)ncc2n1C` [Example I-19], the entries for the “efficacy (kill in %)” value in data set [1], in data set [7] and in [5] were 80%, 100% and 100%, respectively. Also, in data set [6], the “efficacy (no laying of fertile eggs)” value worked out at 80%. Also, the “efficacy (caterpillars killed)” value in data set [2] is recorded as 100%. In addition, the “log P (neutral)” value in data set [3] is reported as “Example I-19: logP (neutral): 2.82 1H-NMR(400.0 MHz, d6-DMSO): □ =”. For the same compound, in data set [4], the “efficacy (beetle larvae killed)” value stood at 100%.

As to `CCS(=O)(=O)c1ccc(-c2ccn(-c3cccnc3)n2)nc1-c1nc2cc(C(F)(F)F)ncc2n1C` [Example I-30, 2-{3-(Ethylsulfonyl)-6-[1-(pyridin-3-yl)-1H-pyrazol-3-yl]pyridin-2-yl}-3-methyl-6-(trifluoromethyl)-3H-imidazo[4,5-c]pyridine], the “efficacy (caterpillars killed)” value in data set [2] worked out at 100%. In data set [9], the “nematicidal efficacy (formation of galls)” value was determined as 90%. In addition, in data set [3], the chromatographic logP was 2.73. Further, the “efficacy (beetle larvae killed)” value in data set [4] is listed as 100%. In data set [5], the “efficacy (kill in %)” value was 100%. For the same compound, in data set [8], the “efficacy (aphids killed)” value stood at 100%.

For the compound `CCS(=O)(=O)c1ccc(-n2cnn(-c3ccccc3F)c2=O)nc1-c1nc2cc(C(F)(F)F)cnc2n1C` [Example I-32], the “efficacy (kill in %)” value in data set [1], in data set [7] and in [5] was 100% each time. Also, the “efficacy (no laying of fertile eggs)” value in [6] is on record as 80%. In addition, the “efficacy (caterpillars killed)” value in data set [2] is reported as 100%. Besides, the “log P (neutral)” value in [3] is recorded as “Example I-32: logP (neutral): 3.52 1H-NMR(400.0 MHz, d6-DMSO): □ =”. Moreover, in data set [4], the “efficacy (beetle larvae killed)” value is listed as 100%. Moreover, in data set [8], the “efficacy (aphids killed)” value turned out to be 90%.

The term chromatographic logP denotes lipophilicity estimated from chromatographic retention. Low readings indicate a more hydrophilic compound, high ones a more lipophilic compound.
